≈ marks a conversion by molar mass, not a printed value.
Legend:
Botrytis cinerea spores [1] = test: Spore germination assay (microscopic examination); assay type: cell-based; settings: 25°C, 5.5 h; for EC50: Botrytis cinerea, read-out: Inhn. of Germination EC50 (ppm)
[2] = system: Colletotrichum lagenarium spores; assay type: cell-based; settings: SDB with Tween 20 (40 ppm), 8 h
[3] = system: Colletotrichum lagenarium; test: Mycelial growth inhibition, poison agar assay; assay type: cell-based
Botrytis = test: Mycelial growth inhibition, poison agar assay; settings: for EC50: Botrytis, 72 h, read-out: Mycelial Growth Inhn. EC50 (ppm)
Experimental: Inhibition of mycelial growth was evaluated in poison agar assays. A 4-fold dilution series of each fungicide to be tested was prepared in DMSO and 125 µl of each dilution was added to 25 ml of molten malt extract agar (20 g malt extract, 20 g glucose, 1 g peptone and 20 g agar per liter). The medium containing test compound was poured immediately into 9 cm diameter petri dishes. Two replicate plates were used for each treatment. Each plate was inoculated with a 7 mm diameter plug taken from the growing edge of a Botrytis culture on PDA. Colony diameters were measured after growth for 3 days in the dark at 25°C. EC50 values were determined from dose-response curves.

[4] = system: Colletotrichum lagenarium spores; test: Spore germination assay; assay type: cell-based; settings: for Germination EC50 (ppm): 8 h
Botrytis cinerea spores [5] = test: microbe, parasite or virus in culture; assay type: cell-based; settings: 5.5 h; for EC50: Botrytis cinerea, read-out: Inhn. of Spore Adhesion (EC50, ppm) Chamber Slides
Botrytis cinerea spores [6] = test: Spore adhesion assay in 96-well polystyrene microtiter plates (sulforhodamine B); assay type: cell-based; settings: 25°C, 5.5 hours; for EC50: Botrytis cinerea, read-out: Inhn. of Spore Adhesion (EC50, ppm) Microtiter plates
Experimental: (§1) Botrytis cinerea was grown at room temperature under fluorescent lights on potato dextrose agar (PDA), and subcultured every 14 days. To prepare spore suspensions, 20 ml sterile milliQ™ water was added to plates (10-14 days old) and the surface scraped gently with a sterile loop. The fluid was filtered through glass wool to remove mycelial fragments, then the spore density was adjusted to the desired concentration.
(§2) For adhesion assays in microtiter plates, stock solutions of test compounds were prepared in DMSO then diluted in SDB such that the DMSO concentration after dilution was ≤2%. Two-fold serial dilutions of these test compound solutions were made in SDB (100 µl) in 96-well flat-bottomed microtiter plates. Spore suspension (100 µl at 2X10^5 spores/ml) was added to the wells, and the plates were incubated at 25°C for 5.5 hours. The medium containing unbound spores was removed by inverting and flicking the microtiter plate to remove as much liquid as possible.

Botrytis cinerea spores [7] = test: Spore adhesion assay in polystyrene counting vials (Coulter Counter); assay type: cell-based; settings: 25°C, 5.5 h; for EC50: Botrytis cinerea, read-out: Inhn. of Spore Adhesion (EC50, ppm) Counting vials
Experimental: as §1
Various fungicides were evaluated for their abilities to inhibit germination-associated spore adhesion to polystyrene counting vials, polymethylpentene (Permanox®) chamber slides and 96-well flat-bottomed polystyrene microtiter plates, and for their effects on spore germination and mycelial growth (table below). Adhesion assays in chamber slides and germination assays were performed as in Example 1 with incubation at 25°C for 5.5 h. Adhesion assays in counting vials were conducted in 20 ml capacity polystyrene counting vials (VWR cat. no. 14310-640). Counting vials received 5 µl of DMSO (controls) or test compound dissolved in DMSO, followed by 500 µl of SDB. Aqueous spore suspension (500 µl) at 200,000 spores/ml was added, mixed gently and the vials or slides incubated at 25°C for 5.5 h. To determine the numbers of unbound spores 15 ml of counting fluid was added, vials were capped and inverted gently 5 times, then counted using a Coulter Counter®.

Magnaporthe grisea = assay type: cell-based; settings: for EC50 (ppm): inhibition of adhesion, YEG, 25°C, 6 hours; for inhibition of germination-associated adhesion: statement in words
[8] = system: Colletotrichum lagenarium spores; test: Spore adhesion assay in 96-well polystyrene microtiter plates; assay type: cell-based; settings: for Inhn. of Adhesion (EC50, ppm) Microtiter plates: SDB with Tween 20 (40 ppm), 8 h
Experimental: as §2
Colletotrichum lagenarium was grown at 25°C in the dark on potato dextrose agar and subcultured every 7-14 days. To prepare spore suspensions, 15 ml sterile water was added to plates (7-10 days old) and the plates agitated gently on a gyrotary shaker for 10 min to release spores. The resulting spore suspension was filtered through glass wool and adjusted to the desired concentration. Spore adhesion assays and germination assays were conducted as outlined in Example 1 for Botrytis except that the SDB medium contained Tween™ 20 (40 ppm), and the spore inoculum was prepared at 5X10^5 spores/ml. Data in the table below show a time-dependent adhesion of spores to the slide which closely parallels the time-course for spore germination.
Various fungicides were evaluated for their abilities to inhibit spore adhesion in 96-well flat-bottomed polystyrene microtiter plates and Permanox® chamber slides, and for their effects on spore germination and mycelial growth. Assays were conducted as outlined in Example 2 for Botrytis except that the SDB medium contained Tween™ 20 (40 ppm), the spore inoculum was prepared at 5X10^5 spores/ml, and 8 h incubation was used for the adhesion and germination assays. For each compound tested, EC50 values for inhibition of adhesion to microtiter plates and chamber slides were similar. Spore adhesion was sensitive to all compounds which inhibited germination at low concentrations (<0.2 ppm).

Puccinia recondita = test: Germination-associated spore adhesion assay in microtiter plates (sulforhodamine B); assay type: cell-based; settings: for EC50 (ppm): inhibition of adhesion, 0.05% Tween 20, 19°C, 4 hours; for inhibition of germination-associated adhesion: statement in words
[9] = system: Aspergillus nidulans spores; test: Spore adhesion assay in 96-well polystyrene microtiter plates; assay type: cell-based; settings: statement in words
Experimental: as §2
Various fungicides were evaluated for their abilities to inhibit spore adhesion in 96-well flat-bottomed polystyrene microtiter plates. Adhesion assays were conducted as outlined in Example 2 for Botrytis except that the spore inoculum was prepared at 2X10^6 spores/ml, and plates were incubated at 37°C for 8 h.

Candida albicans = settings: dacron fibers; Vuddhakel et al. (1988); cited from earlier work
[10] = system: Pyricularia oryzae appressoria; settings: Inoue et al., Pesticide Science 19, 145-152 (1987); cited from earlier work

| Molecule | EC50 (Botrytis cinerea spores [1]) [µg/mL] | EC50 (Botrytis) [µg/mL] | EC50 (Botrytis cinerea spores [6]) [µg/mL] | EC50 (ppm) (Puccinia recondita) | inhibition of germination-associated adhesion (Puccinia recondita) | EC50 (Botrytis cinerea spores [5]) [µg/mL] | EC50 (Botrytis cinerea spores [7]) [µg/mL] | other results |
| --- | --- | --- | --- | --- | --- | --- | --- | --- |
| CO/C=C(/C(=O)OC)c1ccccc1Oc1cc(Oc2ccccc2C#N)ncn1 [Azoxystrobin] |  |  |  |  |  |  |  | Inhn. of Germination EC50 (ppm) (Botrytis cinerea spores [1]): 0.32 ppm; Inhn. of Adhesion (EC50, ppm) Chamber slides [2]: 0.014 ppm; Mycelial Growth Inhn. EC50 (ppm) [3]: >10 ppm; Mycelial Growth Inhn. EC50 (ppm) (Botrytis; malt extract agar, 3 days, 25°C): 3.05 ppm; Germination EC50 (ppm) ([4]; 40 ppm): 0.010 ppm; Inhn. of Spore Adhesion (EC50, ppm) Chamber Slides (Botrytis cinerea spores [5]; Permanox chamber slides, 25°C): 0.28 ppm; Inhn. of Spore Adhesion (EC50, ppm) Microtiter plates (Botrytis cinerea spores [6]): 0.19 ppm; Inhn. of Spore Adhesion (EC50, ppm) Counting vials (Botrytis cinerea spores [7]): 0.19 ppm; EC50 (ppm) (Magnaporthe grisea): 0.064 ppm; inhibition of germination-associated adhesion (Magnaporthe grisea): potent inhibitors of germination-associated adhesion; Inhn. of Adhesion (EC50, ppm) Microtiter plates [8]: 0.027 ppm |
| COC(=O)Nc1nc2ccccc2[nH]1 [Carbendazim] | > 25 | 0.045 (≈ 0.235 µM) | > 10 |  |  |  |  | Inhn. of Adhesion (EC50, ppm) Chamber slides [2]: >10 ppm; Mycelial Growth Inhn. EC50 (ppm) [3]: 0.060 ppm; Germination EC50 (ppm) ([4]; SDB with Tween 20 (40 ppm)): >10 ppm; inhibition of germination ([4]; statement in words): did not inhibit germination; Inhn. of Adhesion (EC50, ppm) Microtiter plates [8]: 1.96 ppm; activity in the spore adhesion assay ([8]; statement in words on adhesion to microtiter plates and chamber slides): little or no activity |
| N#Cc1c(Cl)c(Cl)c(Cl)c(C#N)c1Cl [Chlorothalonil] | 0.067 (≈ 0.252 µM) | 0.35 (≈ 1.32 µM) | 0.1 (≈ 0.376 µM) | 0.473 | inhibited germination-associated adhesion | 0.089 (≈ 0.335 µM) | 0.093 (≈ 0.35 µM) | Inhn. of Adhesion (EC50, ppm) Chamber slides [2]: 0.104 ppm; Mycelial Growth Inhn. EC50 (ppm) [3]: 7.10 ppm; inhibition of spore adhesion [9]: highly potent inhibitors of spore adhesion; Germination EC50 (ppm) ([4]; SDB with Tween 20 (40 ppm)): 0.005 ppm; EC50 (ppm) (Magnaporthe grisea): 0.038 ppm; inhibition of germination-associated adhesion (Magnaporthe grisea): potent inhibitors of germination-associated adhesion; Inhn. of Adhesion (EC50, ppm) Microtiter plates [8]: 0.068 ppm |
| N#Cc1c[nH]cc1-c1cccc(Cl)c1Cl [Fenpiclonil] | < 0.0312 | 0.0015 (≈ 0.00633 µM) | 0.09 (≈ 0.38 µM) |  |  | 1.89 (≈ 7.97 µM) | 0.096 (≈ 0.405 µM) |  |
| O=[N+]([O-])c1cc(C(F)(F)F)c(Cl)c([N+](=O)[O-])c1Nc1ncc(C(F)(F)F)cc1Cl [Fluazinam] | 0.028 (≈ 0.0602 µM) | 0.033 (≈ 0.071 µM) | 0.051 (≈ 0.11 µM) | 0.365 | inhibited germination-associated adhesion | 0.071 (≈ 0.153 µM) | 0.041 (≈ 0.0882 µM) | Inhn. of Adhesion (EC50, ppm) Chamber slides [2]: 0.007 ppm; Mycelial Growth Inhn. EC50 (ppm) [3]: 0.017 ppm; inhibition of spore adhesion [9]: highly potent inhibitors of spore adhesion; Germination EC50 (ppm) ([4]; SDB with Tween 20 (40 ppm)): 0.004 ppm; Inhn. of Adhesion (EC50, ppm) Microtiter plates [8]: <0.019 ppm |
| O=C1c2ccccc2C(=O)N1SC(Cl)(Cl)Cl [Folpet] | 0.15 (≈ 0.506 µM) | 5.5 (≈ 18.5 µM) | 0.33 (≈ 1.11 µM) |  |  | 0.22 (≈ 0.742 µM) | 0.21 (≈ 0.708 µM) |  |
| Cc1cc(C)nc(Nc2ccccc2)n1 [Pyrimethanil] | 8.6 (≈ 43.2 µM) | 0.48 (≈ 2.41 µM) | > 10 |  |  | > 25 | > 25 |  |
| CN(C)C(=S)SSC(=S)N(C)C [Thiram] | < 0.625 | 0.78 (≈ 3.24 µM) | 1.86 (≈ 7.74 µM) |  |  | 1.87 (≈ 7.78 µM) | 1.04 (≈ 4.33 µM) |  |
| C=CC1(C)OC(=O)N(c2cc(Cl)cc(Cl)c2)C1=O (stereo not drawn) [Vinclozolin] | < 0.5 | 0.11 (≈ 0.384 µM) | 0.62 (≈ 2.17 µM) |  |  | > 5 | 0.56 (≈ 1.96 µM) |  |
| CCC(C)(C)c1ccc(CC(C)CN2C[C@@H](C)O[C@@H](C)C2)cc1 (stereo partly drawn) [amorolfine] |  |  |  |  |  |  |  | Candida adherence (Candida albicans): inhibit Candida adherence |
| CC1=C(C(=O)Nc2ccccc2)SCCO1 [carboxin] |  |  |  | 0.081 | inhibited germination-associated adhesion |  |  |  |
| Cn1c(=O)sc2cccc(Cl)c21 [chlobenthiazone] |  |  |  |  |  |  |  | adhesion of Pyricularia oryzae appressoria to barley leaves [10]: inhibited adhesion |
| N#CC(CCc1ccc(Cl)cc1)(Cn1cncn1)c1ccccc1 (stereo not drawn) [fenbuconazole] |  |  |  | 9.2 | little or no activity |  |  |  |
| CCCCC(C#N)(Cn1cncn1)c1ccc(Cl)cc1 (stereo not drawn) [myclobutanil] |  |  |  | >10 | little or no activity |  |  |  |
| CCCN(CCOc1c(Cl)cc(Cl)cc1Cl)C(=O)n1ccnc1 [prochloraz] |  |  |  |  |  |  |  | EC50 (ppm) (Magnaporthe grisea): >10.0 ppm; inhibition of germination-associated adhesion (Magnaporthe grisea): little or no activity |
| Cc1nc(C(F)(F)F)c(C(=O)Nc2c(Br)cc(OC(F)(F)F)cc2Br)s1 [thifluzamide] |  |  |  | 0.043 | inhibited germination-associated adhesion |  |  |  |
| COC(=O)NC(=S)Nc1ccccc1NC(=S)NC(=O)OC [thiophanate-methyl] |  |  |  |  |  |  |  | EC50 (ppm) (Magnaporthe grisea): 7.5 ppm; inhibition of germination-associated adhesion (Magnaporthe grisea): little or no activity |
| Cc1cccc2sc3nncn3c12 [tricyclazole] |  |  |  |  |  |  |  | adhesion of Pyricularia oryzae appressoria to barley leaves [10]: inhibited adhesion |
| mancozeb |  |  |  | 0.56 | inhibited germination-associated adhesion |  |  | EC50 (ppm) (Magnaporthe grisea): 0.115 ppm; inhibition of germination-associated adhesion (Magnaporthe grisea): potent inhibitors of germination-associated adhesion |
